Read-outs that look alike come from different tables or passages of the source.

As usually defined, the melting point is the temperature, or range, at which the solid turns liquid.

Series [1] relates to barnyardgrass (Echinochloa crus-galli). In words: Test A postemergence, barnyardgrass. The class given is in vivo. To be noted: Echinochloa crus-galli, post-emergence, 240 h, Postemergence, 0 to 100 scale (0 no effect, 100 complete control); for pest or weed control at 125 g/ha: 125 g ai/ha, read-out: Plant response rating, Barnyardgrass; for pest or weed control at 500 g/ha: 500 g ai/ha, visual injury vs untreated controls after approx. 10 days, read-out: Barnyardgrass plant response rating. The procedure, abridged: (§1)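 Pots: loam soil/sand blend. Pre: directed soil spray at planting. Post: plants 2–10 cm, 1–2 leaf stage. Formulation: non-phytotoxic solvent + surfactant.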

The subject of a further series is corn (Zea mays). Description: Test A postemergence, corn. To be noted: Zea mays, post-emergence, 240 h, Postemergence, 0 to 100 scale (0 no effect, 100 complete control); for Corn plant response rating (crop injury, 0 = no effect, 100 = complete kill) at 125 g/ha: 125 g ai/ha; for plant injury at 500 g/ha: 500 g ai/ha, visual injury vs untreated controls after approx. 10 days, read-out: Corn plant response rating. The class given is in vivo. The procedure, abridged:
(§2)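 Formulated with a surfactant in a non-phytotoxic solvent, compounds are applied to loam–sand pots, either to bare soil immediately after seeding (preemergence) or to seedlings of 2 to 10 cm bearing one to two leaves (postemergence).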

The test system of another series is kochia (Bassia scoparia). Description: Test A postemergence, kochia. The format is in vivo. To be noted: Bassia scoparia, post-emergence, 240 h, Postemergence, 0 to 100 scale (0 no effect, 100 complete control); for pest or weed control at 125 g/ha: 125 g ai/ha, read-out: Plant response rating, Kochia; for pest or weed control at 500 g/ha: 500 g ai/ha, visual injury vs untreated controls after approx. 10 days, read-out: Kochia plant response rating. The procedure, abridged:
as §2

Series [2] relates to pigweed (Amaranthus retroflexus). Description: Test A preemergence, pigweed. The format is in vivo. To be noted: Amaranthus retroflexus, pre-emergence, 240 h; for pest or weed control at 125 g/ha: 125 g ai/ha; for pest or weed control at 500 g/ha: 500 g ai/ha. The procedure, abridged:
as §1

The mark [3] stands for this setting: 0 to 100 scale (0 no effect, 100 complete control), read-out: Plant response rating, Pigweed.

Molecule `Cc1cc(C)c(C2=NOC3COCCC23)cc1NS(=O)(=O)C(F)(F)F` (centres unmarked) [Compound 121, N-[2,4-Dimethyl-5-(3a,4,7,7a-tetrahydro-5H-pyrano[4,3-d]isoxazol-3-yl)phenyl]-1,1,1-trifluoromethanesulfonamide] had a melting point of 117 to 120 °C. In series [1] (visual injury approx. 10 days), the pest or weed control at 125 g/ha amounted to 90%. Moreover, in series [1], the pest or weed control at 500 g/ha stood at 90%. Moreover, in the series with corn (Zea mays) (visual injury approx. 10 days), the Corn plant response rating (crop injury, 0 = no effect, 100 = complete kill) at 125 g/ha was determined as 50%. In addition, the plant injury at 500 g/ha in the series on corn (Zea mays) was determined as 80%. Further, the pest or weed control at 125 g/ha in the series with kochia (Bassia scoparia) (visual injury approx. 10 days) amounted to 50%. For the same molecule, the pest or weed control at 500 g/ha in the series with kochia (Bassia scoparia) turned out to be 80%.
Turning to `Cc1c(NS(=O)(=O)C(F)(F)F)cc(C(=O)N(C)C)c(C)c1F` [Compound 128, 3-Fluoro-N,N,2,4-tetramethyl-5-[[(trifluoromethyl)sulfonyl]amino]benzamide], the melting point was in the range of 243 to 245 °C. Moreover, the pest or weed control at 125 g/ha in series [1] (visual injury approx. 10 days) is 50%. Further, in series [1], the pest or weed control at 500 g/ha was 90%. Besides, the pest or weed control at 125 g/ha in series [2] (visual injury on 0 to 100 scale (0 no effect, 100 complete control), approximately 10 days, read-out: Pigweed plant response rating) was determined as 100%. In addition, the pest or weed control at 500 g/ha in series [2] (setting [3]) came out at 100%. In the series on corn (Zea mays) (visual injury approx. 10 days), this molecule showed a Corn plant response rating (crop injury, 0 = no effect, 100 = complete kill) at 125 g/ha of 10%. Also, in the series on corn (Zea mays), the plant injury at 500 g/ha was found to be 60%. Besides, the pest or weed control at 125 g/ha in the series with kochia (Bassia scoparia) (visual injury approx. 10 days) amounted to 30%. For the same molecule, in the series with kochia (Bassia scoparia), the pest or weed control at 500 g/ha amounted to 70%.
Molecule `Cc1c(NS(=O)(=O)C(F)(F)F)cc(C(=O)N2CCOCC2)c(C)c1F` [Compound 190, 1,1,1-Trifluoro-N-[3-fluoro-2,4-dimethyl-5-(4-morpholinylcarbonyl)phenyl]methanesulfonamide] yielded a melting point of 236 to 240 °C. For the same molecule, in series [1], the pest or weed control at 125 g/ha came to 80% and the pest or weed control at 500 g/ha stood at 90%. Also, the pest or weed control at 125 g/ha in series [2] (visual injury, 0 to 100 scale (0 no effect, 100 complete control), approx. 10 days, read-out: Plant response rating, Pigweed) amounted to 100%. Besides, the pest or weed control at 500 g/ha in series [2] (setting [3]) came to 100%. For the same molecule, in the series on corn (Zea mays), the Corn plant response rating (crop injury, 0 = no effect, 100 = complete kill) at 125 g/ha worked out at 0% and the plant injury at 500 g/ha came out at 30%. In the series with kochia (Bassia scoparia), the pest or weed control at 125 g/ha turned out to be 30% and the pest or weed control at 500 g/ha stood at 70%.
`Cc1c(NS(=O)(=O)C(F)(F)F)cc(C(=O)N2CCOCC2)c(C)c1C` [Compound 289, 1,1,1-Trifluoro-N-[2,3,4-trimethyl-5-(4-morpholinylcarbonyl)phenyl]methanesulfonamide] registered a melting point of 247 to 250 °C.
